Laboratory results reported in patent US10011607B2, “Ethynyl derivatives” (Hoffmann-La Roche Inc., priority 2015, dated 2018).

Target: human mGlu4 receptor (Homo sapiens (Human), UniProt Q14833)
Experiment: Ca2+ mobilization in vitro assay on recombinant human mGlu4 expressed in HEK293 cells (PAM)
Format: cell-based
Conditions: for Emax: HEK293, maximal response in % of maximal stimulatory effect of saturating L-AP4, read-out: Eff. (%); for EC50: HEK293 cells, human mGlu4, in presence of EC20 of L-AP4, read-out: EC50 (nM) mGlu4PAM
Text: FIG. 1: Illustrates the experimental outline for mGlu4 PAM Ca^2+ mobilization screening assay and the determination of EC50 and % Emax values. […] A depression of the signal observed after addition of the EC20 concentration of L-AP4 was indicative of an inhibitory activity of the test compound.
Determination of EC50 Values Using a Ca2+ Mobilization In Vitro Assay on Recombinant Human mGlu4 Expressed in HEK293 Cells:
A monoclonal HEK-293 cell line stably transfected with a cDNA encoding for the human mGlu4 receptor was generated; for the work with mGlu4 Positive Allosteric Modulators (PAMs), a cell line with low receptor expression levels and low constitutive receptor activity was selected to allow the differentiation of agonistic versus PAM activity. Cells were cultured according to standard protocols (Freshney, 2000) in Dulbecco's Modified Eagle Medium with high glucose supplemented with 1 mM glutamine, 10% (vol/vol) heat-inactivated bovine calf serum, Penicillin/Streptomycin, 50 μg/ml hygromycin and 15 μg/ml blasticidin (all cell culture reagents and antibiotics from Invitrogen, Basel, Switzerland).
About 24 hrs before an experiment, 5×10^4 cells/well were seeded in poly-D-lysine coated, black/clear-bottomed 96-well plates. The cells were loaded with 2.5 μM Fluo-4AM in loading buffer (1×HBSS, 20 mM HEPES) for 1 hr at 37° C. and washed five times with loading buffer. The cells were transferred into a Functional Drug Screening System 7000 (Hamamatsu, Paris, France), and 11 half logarithmic serial dilutions of test compound at 37° C. were added and the cells were incubated for 10-30 min. with on-line recording of fluorescence. Following this pre-incubation step, the agonist (2S)-2-amino-4-phosphonobutanoic acid (L-AP4) was added to the cells at a concentration corresponding to EC20 with on-line recording of fluorescence; in order to account for day-to-day variations in the responsiveness of cells, the EC20 of L-AP4 was determined immediately ahead of each experiment by recording of a full dose-response curve of L-AP4.
Responses were measured as peak increase in fluorescence minus basal (i.e. fluorescence without addition of L-AP4), normalized to the maximal stimulatory effect obtained with saturating concentrations of L-AP4. Graphs were plotted with the % maximal stimulatory using XLfit, a curve fitting program that iteratively plots the data using Levenburg Marquardt algorithm. The single site competition analysis equation used was y=A+((B−A)/(1+((x/C)D))), where y is the % maximal stimulatory effect, A is the minimum y, B is the maximum y, C is the EC50, x is the log 10 of the concentration of the competing compound and D is the slope of the curve (the Hill Coefficient). From these curves the EC50 (drug concentration at which 50% of the maximal receptor activation was achieved), the Hill coefficient as well as the maximal response in % of the maximal stimulatory effect obtained with saturating concentrations of L-AP4 were calculated (see FIG. 1).

Chain of human mGlu4 receptor (Q14833 33-912): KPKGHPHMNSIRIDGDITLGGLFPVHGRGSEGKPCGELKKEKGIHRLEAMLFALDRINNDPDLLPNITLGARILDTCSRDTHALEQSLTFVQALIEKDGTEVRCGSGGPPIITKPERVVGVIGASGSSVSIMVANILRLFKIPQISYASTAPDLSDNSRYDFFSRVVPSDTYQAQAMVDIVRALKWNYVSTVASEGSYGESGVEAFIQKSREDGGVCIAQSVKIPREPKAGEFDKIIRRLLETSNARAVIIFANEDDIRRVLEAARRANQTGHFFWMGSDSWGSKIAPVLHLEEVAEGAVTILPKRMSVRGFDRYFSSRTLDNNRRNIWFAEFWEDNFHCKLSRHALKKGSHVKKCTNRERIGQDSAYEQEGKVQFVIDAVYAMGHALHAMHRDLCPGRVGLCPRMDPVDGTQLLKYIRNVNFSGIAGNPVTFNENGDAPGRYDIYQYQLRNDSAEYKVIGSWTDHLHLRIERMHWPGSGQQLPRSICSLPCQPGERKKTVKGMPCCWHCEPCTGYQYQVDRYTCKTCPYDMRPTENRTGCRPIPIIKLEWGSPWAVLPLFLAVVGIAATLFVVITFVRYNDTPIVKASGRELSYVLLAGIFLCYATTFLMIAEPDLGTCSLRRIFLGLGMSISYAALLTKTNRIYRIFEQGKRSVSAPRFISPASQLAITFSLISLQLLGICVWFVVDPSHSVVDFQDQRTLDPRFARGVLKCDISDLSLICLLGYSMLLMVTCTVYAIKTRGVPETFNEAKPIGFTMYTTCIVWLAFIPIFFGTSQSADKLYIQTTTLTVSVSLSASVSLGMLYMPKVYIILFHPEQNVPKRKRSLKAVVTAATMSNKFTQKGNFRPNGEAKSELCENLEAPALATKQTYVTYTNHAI

SMILES | Emax | EC50
CC12CC(=O)N(c3c(F)cc(C#Cc4ccccc4)cc3F)C(=O)N1CCN(c1ccccn1)C2=O (racemic) [Example 4, (9aRS)-7-[2,6-difluoro-4-(2-phenylethynyl)phenyl]-9a-methyl-2-(2-pyridyl)-4,9-dihydro-3H-pyrazino[1,2-c]pyrimidine-1,6,8-trione] | 110% | 119 nM
CC12CC(=O)N(c3c(F)cc(C#Cc4ccccc4)cc3F)C(=O)N1CCN(c1nc(C(F)(F)F)cs1)C2=O (racemic) [Example 56, (9aRS)-7-[2,6-difluoro-4-(2-phenylethynyl)phenyl]-9a-methyl-2-[4-(trifluoromethyl)thiazol-2-yl]-4,9-dihydro-3H-pyrazino[1,2-c]pyrimidine-1,6,8-trione] | 88% | 166 nM
Cc1nccc(N2CCN3C(=O)N(c4c(F)cc(C#Cc5ccccc5)cc4F)C(=O)C[C@@]3(C)C2=O)n1 [Example 31, (9aS)-7-[2,6-difluoro-4-(2-phenylethynyl)phenyl]-9a-methyl-2-(2-methylpyrimidin-4-yl)-4,9-dihydro-3H-pyrazino[1,2-c]pyrimidine-1,6,8-trione] | 91% | 88 nM
CC(C)Oc1ncc(N2CCN3C(=O)N(c4c(F)cc(C#Cc5ccccc5)cc4F)C(=O)C[C@@]3(C)C2=O)cn1 [Example 40, (9aS)-7-[2,6-difluoro-4-(2-phenylethynyl)phenyl]-2-(2-isopropoxypyrimidin-5-yl)-9a-methyl-4,9-dihydro-3H-pyrazino[1,2-c]pyrimidine-1,6,8-trione] | 103% | 113 nM
COc1ccc(N2CCN3C(=O)N(c4c(F)cc(C#Cc5ccccc5)cc4F)C(=O)C[C@@]3(C)C2=O)cn1 [Example 23, (9aS)-7-[2,6-difluoro-4-(2-phenylethynyl)phenyl]-2-(6-methoxy-3-pyridyl)-9a-methyl-4,9-dihydro-3H-pyrazino[1,2-c]pyrimidine-1,6,8-trione] | 114% | 61 nM
Cn1cnc(N2CCN3C(=O)N(c4c(F)cc(C#Cc5ccccc5)cc4F)C(=O)CC3(C)C2=O)c1 (racemic) [Example 58, (9aRS)-7-[2,6-difluoro-4-(2-phenylethynyl)phenyl]-9a-methyl-2-(1-methylimidazol-4-yl)-4,9-dihydro-3H-pyrazino[1,2-c]pyrimidine-1,6,8-trione] | 91% | 214 nM
C[C@@]12CC(=O)N(c3c(F)cc(C#Cc4ccccc4)cc3F)C(=O)N1CCN(c1ccnnc1)C2=O [Example 50, (9aS)-7-[2,6-difluoro-4-(2-phenylethynyl)phenyl]-9a-methyl-2-pyridazin-4-yl-4,9-dihydro-3H-pyrazino[1,2-c]pyrimidine-1,6,8-trione] | 133% | 74 nM
Cc1ccc(N2CCN3C(=O)N(c4c(F)cc(C#Cc5ccccc5)cc4F)C(=O)CC3(C)C2=O)cn1 (racemic) [Example 16, (9aRS)-7-[2,6-difluoro-4-(2-phenylethynyl)phenyl]-9a-methyl-2-(6-methyl-3-pyridyl)-4,9-dihydro-3H-pyrazino[1,2-c]pyrimidine-1,6,8-trione] | 125% | 298 nM
CC12CC(=O)N(c3ccc(C#Cc4ccccc4)cc3F)C(=O)N1CCN(c1cccnc1)C2=O (racemic) [Example 108, (9aRS)-7-[2-fluoro-4-(2-phenylethynyl)phenyl]-9a-methyl-2-(3-pyridyl)-4,9-dihydro-3H-pyrazino[1,2-c]pyrimidine-1,6,8-trione] | 103% | 267 nM
Cc1cccc(CN2CCN3C(=O)N(c4c(F)cc(C#Cc5ccccc5)cc4F)C(=O)CC3(C)C2=O)c1 (racemic) [Example 83, (9aRS)-7-[2,6-difluoro-4-(2-phenylethynyl)phenyl]-9a-methyl-2-(m-tolylmethyl)-4,9-dihydro-3H-pyrazino[1,2-c]pyrimidine-1,6,8-trione] | 79% | 173 nM
Cn1cc(N2CCN3C(=O)N(c4c(F)cc(C#Cc5ccccc5)cc4F)C(=O)CC3(C)C2=O)cn1 (racemic) [Example 67, (9aRS)-7-[2,6-difluoro-4-(2-phenylethynyl)phenyl]-9a-methyl-2-(1-methylpyrazol-4-yl)-4,9-dihydro-3H-pyrazino[1,2-c]pyrimidine-1,6,8-trione] | 129% | 113 nM
COc1ccc(N2CCN3C(=O)N(c4c(F)cc(C#Cc5ccccc5)cc4F)C(=O)CC3(C)C2=O)cn1 (racemic) [Example 22, (9aRS)-7-[2,6-difluoro-4-(2-phenylethynyl)phenyl]-2-(6-methoxy-3-pyridyl)-9a-methyl-4,9-dihydro-3H-pyrazino[1,2-c]pyrimidine-1,6,8-trione] | 106% | 105 nM
COCCCN1CCN2C(=O)N(c3c(F)cc(C#Cc4ccccc4)cc3F)C(=O)C[C@@]2(C)C1=O [Example 80, (9aS)-7-[2,6-difluoro-4-(2-phenylethynyl)phenyl]-2-(3-methoxypropyl)-9a-methyl-4,9-dihydro-3H-pyrazino[1,2-c]pyrimidine-1,6,8-trione] | 132% | 135 nM
C[C@@]12CC(=O)N(c3c(F)cc(C#Cc4ccccc4)cc3F)C(=O)N1CCN(Cc1ccc(F)cc1)C2=O [Example 91, (9aS)-7-[2,6-difluoro-4-(2-phenylethynyl)phenyl]-2-[(4-fluorophenyl)methyl]-9a-methyl-4,9-dihydro-3H-pyrazino[1,2-c]pyrimidine-1,6,8-trione] | 101% | 147 nM
O=C1C2CC(=O)N(c3c(F)cc(C#Cc4ccccc4)cc3F)C(=O)N2CCN1c1cccnc1 (racemic) [Example 1, (9aRS)-7-[2,6-difluoro-4-(2-phenylethynyl)phenyl]-2-(3-pyridyl)-3,4,9,9a-tetrahydropyrazino[1,2-c]pyrimidine-1,6,8-trione] | 105% | 224 nM
C[C@@]12CC(=O)N(c3c(F)cc(C#Cc4ccccc4)cc3F)C(=O)N1CCN(c1cccnn1)C2=O [Example 47, (9aS)-7-[2,6-difluoro-4-(2-phenylethynyl)phenyl]-9a-methyl-2-pyridazin-3-yl-4,9-dihydro-3H-pyrazino[1,2-c]pyrimidine-1,6,8-trione] | 98% | 55 nM
Cn1cc(N2CCN3C(=O)N(c4c(F)cc(C#Cc5ccccc5)cc4F)C(=O)C[C@@]3(C)C2=O)cn1 [Example 68, (9aS)-7-[2,6-difluoro-4-(2-phenylethynyl)phenyl]-9a-methyl-2-(1-methylpyrazol-4-yl)-4,9-dihydro-3H-pyrazino[1,2-c]pyrimidine-1,6,8-trione] | 135% | 90 nM
CCOC(=O)CCCN1CCN2C(=O)N(c3c(F)cc(C#Cc4ccccc4)cc3F)C(=O)C[C@@]2(C)C1=O [Example 82, Ethyl 4-[(9aS)-7-[2,6-difluoro-4-(2-phenylethynyl)phenyl]-9a-methyl-1,6,8-trioxo-4,9-dihydro-3H-pyrazino[1,2-c]pyrimidin-2-yl]butanoate] | 134% | 201 nM
O=C1C2CC(=O)N(c3c(F)cc(C#Cc4ccccc4)cc3F)C(=O)N2CCN1c1ccncn1 (racemic) [Example 2, (9aRS)-7-[2,6-difluoro-4-(2-phenylethynyl)phenyl]-2-pyrimidin-4-yl-3,4,9,9a-tetrahydropyrazino[1,2-c]pyrimidine-1,6,8-trione] | 88% | 85 nM
C[C@@]12CC(=O)N(c3c(F)cc(C#Cc4ccccc4F)cc3F)C(=O)N1CCN(c1cccnc1)C2=O [Example 109, (9aS)-7-[2,6-difluoro-4-[2-(2-fluorophenyl)ethynyl]phenyl]-9a-methyl-2-(3-pyridyl)-4,9-dihydro-3H-pyrazino[1,2-c]pyrimidine-1,6,8-trione] | 85% | 56 nM
C[C@@]12CC(=O)N(c3c(F)cc(C#Cc4ccccc4)cc3F)C(=O)N1CCN(Cc1ccccc1F)C2=O [Example 89, (9aS)-7-[2,6-difluoro-4-(2-phenylethynyl)phenyl]-2-[(2-fluorophenyl)methyl]-9a-methyl-4,9-dihydro-3H-pyrazino[1,2-c]pyrimidine-1,6,8-trione] | 98% | 149 nM
